This passage reports IC50 results from ChEMBL document CHEMBL4184208, “Theoretical research in structure characteristics of different inhibitors and differences of binding modes with CBP bromodomain” (Bioorg Med Chem, 2018).

What is called IC50 is the concentration that inhibits the measured activity by half. A higher IC50 goes with a need for much substance.

The target in the experiment is CREB-binding protein/Histone acetyltransferase p300 (Homo sapiens, UniProt Q09472+Q92793). As to the kind of experiment: Inhibition of human His-FLAG tagged CBP/EP300 (1082 to 1197 residues) using H4-TetraAc-biotin peptide as substrate after 90 mins by AlphaLISA method. The experiment is classed as protein assay. On the technique in general: Bead proximity is the source of the signal in Alpha formats.

Molecule `C[C@@H]1CC(=O)Nc2ccccc2N1` returned an IC50 of 14 µM.
`C[C@@H]1CC(=O)Nc2cccc(-c3cnn(C(C)(C)C)c3)c2N1` came in with an IC50 of 0.47 µM.
